Measured values: patent US20240124417A1, “COMPOUNDS USEFUL AS IMMUNOMODULATORS” (Bristol-Myers Squibb Company, priority 2019, published 2024)
pIC50: −log10 of the molar value.

Biological target: T1, PD-1/PD-L1 (Homo sapiens, UniProt Q9NZQ7)
T1 construct: TVMV protease site linker (C); made in house; host or cells: HEK293T cells
Test: PD-1/PD-L1 Homogenous Time-Resolved Fluorescence (HTRF) binding assay
Conditions: PD-L1-His 10 nM, PD-1-Ig 20 nM
Outline: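 Inhibitors pre-incubated 15 min with PD-L1-His extracellular domain (10 nM final) in dPBS with 0.1% BSA and 0.05% Tween-20, then PD-1-Ig (20 nM final) added for a further 15 min. Read-out by HTRF with europium cryptate anti-Ig (1 nM) and APC anti-His (20 nM). Related pairs: PD-1-Ig/PD-L2-His (20/5 nM), CD80-His/PD-L1-Ig (100/10 nM).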

T1 sequence (Q9NZQ7 18-239): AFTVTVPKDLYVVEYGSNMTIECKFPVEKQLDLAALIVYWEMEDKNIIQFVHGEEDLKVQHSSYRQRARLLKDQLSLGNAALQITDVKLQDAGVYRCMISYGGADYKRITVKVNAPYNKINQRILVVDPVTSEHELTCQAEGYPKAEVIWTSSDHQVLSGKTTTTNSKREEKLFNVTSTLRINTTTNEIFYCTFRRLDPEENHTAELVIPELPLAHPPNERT

Row | pIC50 | SMILES
1 | 7.76 | Cc1c(COc2cc(OCc3cncc(C#N)c3)c(CN3CCCCC3c3cn[nH]c3)cc2Cl)cccc1-c1cccc(OCCCN2CC[C@@H](O)C2)c1C (stereo partly drawn) [Example 1011, 5-((2-((2-(1H-Pyrazol-4-yl)piperidin-1-yl)methyl)-4-chloro-5-((3′-(3-((R)-3-hydroxy-pyrrolidin-1-yl)propoxy)-2,2′-dimethyl-[1,1′-biphenyl]-3-yl)methoxy)phenoxy)methyl)-nicotinonitrile]
2 | 8.77 | Cc1c(COc2cc(OCc3cncc(C#N)c3)c(CN(C)CCc3cscn3)cc2Cl)cccc1-c1cccc(OCCCN2CC[C@@H](O)C2)c1C [Example 2507, (R)-5-((4-chloro-5-((3′-(3-(3-hydroxypyrrolidin-1-yl)propoxy)-2,2′-dimethyl-[1,1′-biphenyl]-3-yl)methoxy)-2-((methyl(2-(thiazol-4-yl)ethyl)amino)methyl)phenoxy)methyl)nicotinonitrile]
3 | 8.47 | CC(=O)NC1CCN(CCCOc2cccc(-c3cccc(COc4cc(OCc5cncc(C#N)c5)c(CN5CCC(c6cnn(C)c6)C5)cc4Cl)c3C)c2C)CC1 (centres unmarked) [Example 1052, N-(1-(3-((3′-((2-Chloro-5-((5-cyanopyridin-3-yl)methoxy)-4-((3-(1-methyl-1H-pyrazol-4-yl)pyrrolidin-1-yl)methyl)phenoxy)methyl)-2,2′-dimethyl-[1,1′-biphenyl]-3-yl)oxy)-propyl)piperidin-4-yl)acetamide]
4 | 8.21 | Cc1c(COc2cc(OCc3cncc(C#N)c3)c(CNCc3ncc4ccccn34)cc2Cl)cccc1-c1cccc(OCC2CCCN(C)C2)c1Cl (centres unmarked) [Example 2623, 5-((4-chloro-5-((2′-chloro-2-methyl-3′-((1-methylpiperidin-3-yl)methoxy)-[1,1′-biphenyl]-3-yl)methoxy)-2-(((imidazo[1,5-a]pyridin-3-ylmethyl)amino)methyl)phenoxy)methyl)nicotinonitrile]
5 | 9.00 | Cc1c(COc2cc(OCc3cncc(C#N)c3)c(CNCCc3cscn3)cc2Cl)cccc1-c1cccc(OCC2CCCN(C)C2)c1Cl (centres unmarked) [Example 2598, 5-((4-chloro-5-((2′-chloro-2-methyl-3′-((1-methylpiperidin-3-yl)methoxy)-[1,1′-biphenyl]-3-yl)methoxy)-2-(((2-(thiazol-4-yl)ethyl)amino)methyl)phenoxy)methyl)nicotinonitrile]
